Laboratory results reported in PMC10894281, “Kinetic characterization of human mRNA guanine-N7 methyltransferase” (Scientific Reports, 2024).

Assays:
Format in all cases: biochemical
[1] = biological target: T1, RNA cap guanine-N7 methyltransferase (hRNMT) (Homo sapiens, UniProt O43148); assay: radiometric scintillation proximity methyltransferase assay (3H-SAM, biotinylated RNA); set-up: gene RNMT; RNMT (1–476), full length
[2] = biological target: T1, RNA cap guanine-N7 methyltransferase (hRNMT); assay: radiometric scintillation proximity methyltransferase assay (3H-SAM, biotinylated RNA); product inhibition; set-up: gene RNMT; RNMT (1–476), full length
[3] = biological target: T1, RNA cap guanine-N7 methyltransferase (hRNMT); assay: steady-state kinetics, apparent Km by radiometric scintillation proximity assay; set-up: gene RNMT; RNMT (1–476), full length; also catalytic domain RNMT (123–476); settings: read-out: Km^app

T1 sequence (O43148 whole entry): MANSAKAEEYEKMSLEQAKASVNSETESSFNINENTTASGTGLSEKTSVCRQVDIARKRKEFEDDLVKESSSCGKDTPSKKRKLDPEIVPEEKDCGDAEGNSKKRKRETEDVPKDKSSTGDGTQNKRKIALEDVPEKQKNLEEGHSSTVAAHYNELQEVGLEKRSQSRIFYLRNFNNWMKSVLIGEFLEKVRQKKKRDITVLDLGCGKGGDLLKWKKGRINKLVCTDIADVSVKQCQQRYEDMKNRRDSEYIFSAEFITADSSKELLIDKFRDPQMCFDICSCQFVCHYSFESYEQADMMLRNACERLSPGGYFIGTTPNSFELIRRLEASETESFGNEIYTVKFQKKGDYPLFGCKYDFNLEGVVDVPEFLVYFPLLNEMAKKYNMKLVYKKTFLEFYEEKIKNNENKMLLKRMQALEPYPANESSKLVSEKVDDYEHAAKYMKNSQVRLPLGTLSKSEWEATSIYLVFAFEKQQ

**Q.** Which IC50 ([1]; read-out: IC50) does the source give for `Cc1ccc(C(=O)Nc2ccc(S(=O)(=O)O)c3cc(S(=O)(=O)O)cc(S(=O)(=O)O)c23)cc1NC(=O)c1cccc(NC(=O)Nc2cccc(C(=O)Nc3cc(C(=O)Nc4ccc(S(=O)(=O)O)c5cc(S(=O)(=O)O)cc(S(=O)(=O)O)c45)ccc3C)c2)c1` [Suramin] here?
**A.** The IC50 was 5 ± 0.4 nM.

**Q.** `Nc1ncnc2c1ncn2[C@@H]1O[C@H](CSCC[C@H](N)C(=O)O)[C@@H](O)[C@H]1O` [SAH] was tested. Which IC50 [2] did it give?
**A.** The IC50 was 389 ± 110 nM.

**Q.** `C[S+](CC[C@H](N)C(=O)[O-])C[C@H]1O[C@@H](n2cnc3c(N)ncnc32)[C@H](O)[C@@H]1O` (stereo partly shown) [SAM] was tested. Which Km [3] did it give?
**A.** The Km was 0.19 ± 0.038 µM.

**Q.** For `Nc1ncnc2c1ncn2[C@@H]1O[C@H](C[C@@H](N)CC[C@H](N)C(=O)O)[C@@H](O)[C@H]1O` [Sinefungin], which IC50 [1] is on record?
**A.** Its IC50 is 3 ± 0.6 nM.
